The values below come from US7737136B2 (N.V. Organon, priority 2002, dated 2010).

Assay [1] deals with T1, human progesterone receptor-B (Homo sapiens, UniProt P06401).
T1 construct: expressed in transfected cells; host or cells: Chinese hamster ovary (CHO) cells, line CHO-PRB-pMMTV-LUC 1E2-A2
T1 sequence (P06401 1-933): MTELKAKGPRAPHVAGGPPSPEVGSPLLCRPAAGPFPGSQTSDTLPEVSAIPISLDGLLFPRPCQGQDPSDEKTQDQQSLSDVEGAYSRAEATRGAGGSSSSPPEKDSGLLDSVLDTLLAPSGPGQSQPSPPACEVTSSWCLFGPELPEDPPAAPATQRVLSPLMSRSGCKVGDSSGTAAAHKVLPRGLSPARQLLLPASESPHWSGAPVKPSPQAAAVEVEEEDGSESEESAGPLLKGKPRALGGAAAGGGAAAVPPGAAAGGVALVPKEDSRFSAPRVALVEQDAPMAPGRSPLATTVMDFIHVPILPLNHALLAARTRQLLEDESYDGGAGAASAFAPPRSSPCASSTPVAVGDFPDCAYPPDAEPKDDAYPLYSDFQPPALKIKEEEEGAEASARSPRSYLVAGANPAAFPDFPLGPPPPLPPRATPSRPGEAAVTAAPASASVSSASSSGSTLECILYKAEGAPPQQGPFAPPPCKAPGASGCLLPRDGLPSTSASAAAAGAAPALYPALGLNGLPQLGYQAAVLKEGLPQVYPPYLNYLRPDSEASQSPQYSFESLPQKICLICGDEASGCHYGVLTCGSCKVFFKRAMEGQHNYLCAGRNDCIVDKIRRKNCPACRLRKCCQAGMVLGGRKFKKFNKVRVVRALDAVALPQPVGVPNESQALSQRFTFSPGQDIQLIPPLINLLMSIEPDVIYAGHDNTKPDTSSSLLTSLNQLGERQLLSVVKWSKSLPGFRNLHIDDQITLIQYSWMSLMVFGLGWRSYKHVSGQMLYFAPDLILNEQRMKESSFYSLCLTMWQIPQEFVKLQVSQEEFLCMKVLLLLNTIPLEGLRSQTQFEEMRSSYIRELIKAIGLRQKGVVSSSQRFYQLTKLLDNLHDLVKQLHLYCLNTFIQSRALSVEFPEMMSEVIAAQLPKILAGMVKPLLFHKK
Nature of the assay: Progesterone receptor-B transactivation assay, progestagenic (agonist) activity, CHO-PRB-pMMTV-LUC 1E2-A2 cells. Type of assay: cell-based. To be noted: CHO cells stably transfected with human progesterone receptor-B and MMTV-luciferase reporter; read-out: Progestagenic activity EC50. How it is done: (§1) The (anti-)progestagenic activity of a compound of the invention (EC 50 and intrinsic activity) was determined in an in vitro bioassay of Chinese hamster ovary (CHO) cells stably transfected with the human progesterone receptor-B expression plasmid and with a reporter plasmid in which the MMTV-promoter is linked to the luciferase reporter gene. […] The cells were cultured with charcoal-treated supplemented defined bovine calf serum from Hyclone (Utah, USA) in Dulbecco's Modified Eagles Medium/Nutrient Mixture F-12 (DMEM/HAM F12 in ratio 1:1) from Gibco (Paisley, UK).

The target in assay [2] is T1, human progesterone receptor-B. As to the kind of experiment: Progesterone receptor-B transactivation assay, antiprogestagenic activity (inhibition of luciferase transactivation induced by Org 2058). Type of assay: cell-based. The note with it: in the presence of 1 nM (16α)-16-ethyl-21-hydroxy-19-norpregn-4-ene-3,20-dione (Org 2058); read-out: Anti-progestagenic activity EC50. As to the method: as §1

SMILES strings stand for the structures. Some results are limits rather than exact numbers.

Regarding `O=C(N[C@H]1CCCN2c3cc(F)ccc3Oc3ccccc3[C@H]12)C(F)(F)F` (relative stereo) [Example 5, trans-2,2,2-Trifluoro-N-(7-fluoro-2,3,4,14b-tetrahydro-1H-dibenzo[b,f]pyrido[1,2-d][1,4]oxazepin-1-yl)acetamide], the EC50 in assay [1] and in assay [2] was 100 to 10000 nM each time.

Regarding `O=C(N[C@H]1CCCN2c3cc(Cl)ccc3Cc3ccccc3[C@H]12)C(F)(F)F` (relative stereo) [Example 8, trans-N-(7-Chloro-1,2,3,4,10,14b-hexahydrodibenzo[c,f]pyrido[1,2-a]azepin-1-yl)-2,2,2-trifluoroacetamide], the EC50 is less than 10 nM in assay [1] and 10 to 100 nM in assay [2].

In the case of `CC(=O)N[C@H]1CCCN2c3cc(Cl)ccc3Oc3ccccc3[C@H]12` (relative stereo) [Example 10, trans-N-(7-Chloro-2,3,4,14b-tetrahydro-1H-dibenzo[b,f]pyrido[1,2-d][1,4]oxazepin1-yl)acetamide], the EC50 in assay [1] and in assay [2] was 100 to 10000 nM in each case.

For the compound `CC(=S)N[C@H]1CCCN2c3cc(Cl)ccc3Oc3ccccc3[C@H]12` (relative stereo) [Example 21], the EC50 lay within 10 to 100 nM in assay [1] and 100 to 10000 nM in assay [2].

As to `N=C(N[C@H]1CCCN2c3cc(Cl)ccc3Oc3ccccc3[C@H]12)C(F)(F)F` (relative stereo) [Example 29, trans-N-(7-Chloro-2,3,4,14b-tetrahydro-1H-dibenzo[b,f]pyrido[1,2-d][1,4]oxazepin-1-yl)-2,2,2-trifluoroacetimidamide], the EC50 in assay [1] and in assay [2] was 10 to 100 nM each time.

Take `CC(C)CNC(=S)N[C@H]1CCCN2c3cc(Cl)ccc3Oc3ccccc3[C@H]12` (relative stereo) [Example 32, trans-N-(7-Chloro-2,3,4,14b-tetrahydro-1H-dibenzo[b,f]pyrido[1,2-d][1,4]oxazepin-1-yl)-N′-(2-methylpropyl)thiourea]: in assay [2], the EC50 is 100 to 10000 nM.

As for `S=C(NC1CCCCC1)N[C@H]1CCCN2c3cc(Cl)ccc3Oc3ccccc3[C@H]12` (relative stereo) [Example 33], in assay [2], the EC50 was in the range of 100 to 10000 nM.

For `O=C(N[C@H]1CCCN2c3cc(Cl)c(Cl)cc3Oc3ccccc3[C@H]12)C(F)(F)F` (relative stereo) [Example 38A, trans-N-(7,8-Dichloro-2,3,4,14b-tetrahydro-1H-dibenzo[b,f]pyrido[1,2-d][1,4]oxazepin-1-yl)-2,2,2-trifluoroacetamide], the EC50 in assay [1] lay in the range of 10 to 100 nM; in assay [2], 100 to 10000 nM.

Consider `O=C(N[C@H]1CCCN2c3cc(Cl)c(Br)cc3Oc3ccccc3[C@H]12)C(F)(F)F` (relative stereo) [Example 39, trans-N-(8-Bromo-7-chloro-2,3,4,14b-tetrahydro-1H-dibenzo[b,f]pyrido[1,2-d][1,4]oxazepin-1-yl)-2,2,2-trifluoroacetamide], for which the EC50 in assay [1] and in assay [2] was 100 to 10000 nM each time.

For the compound `COCCN[C@H]1CCCN2c3cc(Cl)ccc3Oc3ccccc3[C@H]12` (relative stereo) [Example 48, trans-7-Chloro-2,3,4,14b-tetrahydro-N-(2-methoxyethyl)-1H-dibenzo[b,f]pyrido[1,2-d][1,4]oxazepine-1-amine], the EC50 in assay [1] is 100 to 10000 nM; in assay [2] it was 10 to 100 nM.

As for `CC(C)(C)OC(=O)CN[C@H]1CCCN2c3cc(Cl)ccc3Sc3ccccc3[C@H]12` (relative stereo) [Example 49, 1,1-Dimetylethyl trans-2-[(7-chloro-2,3,4,14b-tetrahydro-1H-dibenzo[b,f]pyrido[1,2-d][1,4]thiazepin-1-yl)amino]acetate], the EC50 in assay [1] lay in the range of 100 to 10000 nM; in assay [2], 10 to 100 nM.

Turning to `O=C(NC1CCCN2c3cc(Cl)ccc3Oc3ccccc3C12)C(F)F` (stereo not drawn) [13 (1S14bR isomer)], the EC50 in assay [1] and in assay [2] was less than 10 nM each time.

As for `FCC(=S)NC1CCCN2c3cc(Cl)ccc3Oc3ccccc3C12` [22 (1S,14bR isomer)], the EC50 in assay [2] fell in the range of 10 to 100 nM.

For `O=C(N[C@H]1CCCN2c3cc(Cl)ccc3Oc3ccccc3[C@H]12)C(F)F` [Example 13], in assay [1], the EC50 was in the range of 10 to 100 nM.

With `O=C(CCl)NC1CCCN2c3cc(Cl)ccc3Oc3ccccc3C12` (centres unmarked) [Example 14], the EC50 in assay [1] was 100 to 10000 nM.

On to `FC(F)(F)C(=S)NC1CCCN2c3cc(Cl)ccc3Cc3ccccc3C12` (centres unmarked) [Example 20], for which the EC50 in assay [1] is less than 10 nM.

As for `FCC(=S)N[C@H]1CCCN2c3cc(Cl)ccc3Oc3ccccc3[C@H]12` [Example 22], in assay [1], the 50% effective concentration (EC50) is less than 10 nM.

As for `CN(C(=S)C(F)(F)F)C1CCCN2c3cc(Cl)ccc3Oc3ccccc3C12` (centres unmarked) [Example 24], in assay [1], the EC50 lay in the range of 10 to 100 nM.

For the compound `CC(C)(C)NC(=S)NC1CCCN2c3cc(Cl)ccc3Oc3ccccc3C12` (centres unmarked) [Example 35], in assay [2], the EC50 was 100 to 10000 nM.
